Data taken from patent publication US20250115620A1, “BRIDGED TRICYCLIC CARBAMOYLPYRIDONE COMPOUNDS AND USES THEREOF” (Gilead Sciences, Inc., priority 2022, published 2025).
Read-outs that look alike come from different tables or passages of the source.

Key:
[1] = system: HIV-1 (IIIB); test: microbe, parasite or virus in culture; format: cell-based; conditions: Human immunodeficiency virus 1, IIIB, MT4, 120 h, HIV-1 (IIIB) in MT-4 cells, 5 days incubation, Cell Titer Glo; read-out: MT4 EC50
[2] = system: pLAI reporter virus; test: microbe, parasite or virus in culture; format: cell-based, HIV; conditions: Human immunodeficiency virus 1, MT4, 72 h
[3] = in vitro; conditions: human, uninfected MT-4 cells

| SMILES | EC50 [1] [nM] | EC50 ([2]; read-out: RLUC 50% HS EC50) [nM] | EC50 ([2]; read-out: RLUC CCM EC50) [nM] | CC50 at 5 days [3] [nM] |
| --- | --- | --- | --- | --- |
| C[C@H]1CC[C@@]2(CC(=O)N(Cc3ccc(F)cc3)O2)[C@H]2CN1C(=O)c1c(O)c(=O)c(C(=O)NCc3c(F)cc(F)cc3F)cn12 [Example 102, (3′S,5R,7′R)-2-(4-fluorobenzyl)-12′-hydroxy-3′-methyl-1′,3,11′-trioxo-N-(2,4,6-trifluorobenzyl)-1′,4′,5′,11′-tetrahydro-3′H,7′H-spiro[isoxazolidine-5,6′-[2,7]methanopyrido[1,2-a][1,4]diazonine]-10′-carboxamide] | 11.5 | 30 | 2 | 8790 |
| C[C@H]1CC[C@]2(CC(=O)N(Cc3ccc4c(cnn4C)c3)O2)[C@H]2CN1C(=O)c1c(O)c(=O)c(C(=O)NCc3c(F)cc(F)cc3F)cn12 [Example 103, (3′S,5S,7′R)-12′-hydroxy-3′-methyl-2-((1-methyl-1H-indazol-5-yl)methyl)-1′,3,11′-trioxo-N-(2,4,6-trifluorobenzyl)-1′,4′,5′,11′-tetrahydro-3′H,7′H-spiro[isoxazolidine-5,6′-[2,7]methanopyrido[1,2-a][1,4]diazonine]-10′-carboxamide] | 1.5 | 0.4 | 0.2 | ≥ 50000 |
| C[C@H]1CC[C@]2(CC(=O)N(Cc3cnn(C)n3)O2)[C@H]2CN1C(=O)c1c(O)c(=O)c(C(=O)NCc3c(F)cc(F)cc3F)cn12 [Example 104, (3′S,5S,7′R)-12′-hydroxy-3′-methyl-2-((2-methyl-2H-1,2,3-triazol-4-yl)methyl)-1′,3,11′-trioxo-N-(2,4,6-trifluorobenzyl)-1′,4′,5′,11′-tetrahydro-3′H,7′H-spiro[isoxazolidine-5,6′-[2,7]methanopyrido[1,2-a][1,4]diazonine]-10′-carboxamide] | 2.6 | 0.3 | 0.9 | ≥ 50000 |
| C[C@H]1CC[C@]2(CC(=O)N(CCc3ccccc3)O2)[C@H]2CN1C(=O)c1c(O)c(=O)c(C(=O)NCc3c(F)cc(F)cc3F)cn12 [Example 105, (3′S,5S,7′R)-12′-hydroxy-3′-methyl-1′,3,11′-trioxo-2-phenethyl-N-(2,4,6-trifluorobenzyl)-1′,4′,5′,11′-tetrahydro-3′H,7′H-spiro[isoxazolidine-5,6′-[2,7]methanopyrido[1,2-a][1,4]diazonine]-10′-carboxamide] | 1.2 | 15.5 | 0.3 | ≥ 50000 |
| C[C@H]1CC[C@]2(CC(=O)N(Cc3cccc4ccccc34)O2)[C@H]2CN1C(=O)c1c(O)c(=O)c(C(=O)NCc3c(F)cc(F)cc3F)cn12 [Example 106, (3′S,5S,7′R)-12′-hydroxy-3′-methyl-2-(naphthalen-1-ylmethyl)-1′,3,11′-trioxo-N-(2,4,6-trifluorobenzyl)-1′,4′,5′,11′-tetrahydro-3′H,7′H-spiro[isoxazolidine-5,6′-[2,7]methanopyrido[1,2-a][1,4]diazonine]-10′-carboxamide] | 0.9 | 64.2 | 0.2 | ≥ 50000 |
| C[C@H]1CC[C@]2(CC(=O)N(Cc3ccc4ccccc4c3)O2)[C@H]2CN1C(=O)c1c(O)c(=O)c(C(=O)NCc3c(F)cc(F)cc3F)cn12 [Example 107, (3′S,5S,7′R)-12′-hydroxy-3′-methyl-2-(naphthalen-2-ylmethyl)-1′,3,11′-trioxo-N-(2,4,6-trifluorobenzyl)-1′,4′,5′,11′-tetrahydro-3′H,7′H-spiro[isoxazolidine-5,6′-[2,7]methanopyrido[1,2-a][1,4]diazonine]-10′-carboxamide] | 0.8 | 10.2 | 0.3 | ≥ 50000 |
